Test results reported in US11000033B2, “Ketone or oxime compound, and herbicide” (NISSAN CHEMICAL CORPORATION, priority 2014, dated 2021).

Assays:
Type in all cases: in vivo
Digitaria ciliaris = experiment: Test Example 4: herbicidal effect by soil treatment (symbol F)
Excerpt: (§1) Herbicidal Effect Test by Soil Treatment
(§2) Sterilized diluvial soil was placed in a plastic box having a length of 21 cm, a width of 13 cm, and a depth of 7 cm. Each of the seeds of Digitaria ciliaris, Setaria viridis, Echinochloa crus-galli var. crus-galli, Avena fatua, Alopecurus myosuroides, Lolium multiflorum Lam., Apera spica-venti, Abutilon theophrasti, Amaranthus retroflexus, Chenopodium album, Stellaria media, Galium spurium, Veronica persica, corn, soybean, rice, wheat, beet, and rapeseed was sowed in a spot-like manner and was covered with the soil of a thickness of about 1.5 cm. Subsequently, the emulsion agent of the compound present invention prepared in accordance with Formulation Example 2 was diluted with water so as to be a predetermined herbicide amount and the diluted emulsion agent was uniformly applied to the surface of the soil with a small-size spray. The plastic box was placed in a greenhouse of 25° C. to 30° C. to grow plant. 3 weeks later from the herbicide application, the effect to each plant was investigated in accordance with the criteria of Test Example 1.

corn [1] = experiment: Test Example 5: effect on crop by foliage application, plastic box (symbol c); conditions: 320 g/ha, 3 weeks after application
Procedure, shortened: (§3)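 Soil: sterilized diluvial. Container: plastic box, 21 × 13 cm, 7 cm deep. Sowing: spot-like, ~1.5 cm cover. Growth: greenhouse, 25° C. to 30° C.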

corn [2] = experiment: Test Example 4: effect on crop by soil treatment (symbol c); conditions: for c: corn, effect grade on crop: 320 g/ha
Excerpt: as §1
(§4) Sterilized diluvial soil was placed in a plastic box having a length of 21 cm, a width of 13 cm, and a depth of 7 cm. Each of the seeds of Digitaria ciliaris, Setaria viridis, Echinochloa crus-galli var. crus-galli, Avena fatua, Alopecurus myosuroides, Lolium multiflorum Lam., Apera spica-venti, Abutilon theophrasti, Amaranthus retroflexus, Chenopodium album, Stellaria media, Galium spurium, Veronica persica, corn, soybean, rice, wheat, beet, and rapeseed was sowed in a spot-like manner and was covered with the soil of a thickness of about 1.5 cm. […] The plastic box was placed in a greenhouse of 25° C. to 30° C. to grow plant.

rapeseed = experiment: Test Example 4: effect on crop by soil treatment (symbol g); conditions: for g: rapeseed, effect grade on crop: 320 g/ha
Excerpt: as §1, §4

Alopecurus myosuroides = experiment: Test Example 5: herbicidal effect by foliage application, plastic box (symbol J); conditions: 320 g/ha, 3 weeks after application
Procedure, shortened: (§5)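 After sowing into sterilized diluvial soil and growing two weeks under glass at 25° C. to 30° C., seedlings receive a uniform foliar spray of diluted emulsion. Damage is judged visually three weeks on.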

rice = experiment: Test Example 4: effect on crop by soil treatment (symbol b); conditions: for b: directly sowed rice plant, effect grade on crop: 320 g/ha
Excerpt: as §1, §4

Leptochloa chinensis = experiment: Test Example 3: herbicidal effect by foliage application, Wagner pot (symbol D); conditions: application herbicide amount 320 g/ha; for D (Leptochloa chinensis) herbicidal effect grade: Table 24
Procedure, shortened: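 Herbicidal activity was rated three weeks after a foliar spray of diluted emulsion concentrate, applied at a predetermined dose to plants grown for 14 days from seed in waterlogged alluvial soil within a 25–30 °C greenhouse.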

soybean = experiment: Test Example 5: effect on crop by foliage application, plastic box (symbol d); conditions: 320 g/ha, 3 weeks after application
Procedure, shortened: as §3

Avena fatua = experiment: Test Example 4: herbicidal effect by soil treatment (symbol I)
Excerpt: as §1, §2

[3] = system: Echinochloa crus-galli var. crus-galli; experiment: Test Example 5: herbicidal effect by foliage application, plastic box (symbol H); conditions: 320 g/ha, 3 weeks after application
Procedure, shortened: as §5

[4] = application herbicide amount 320 g/ha

Compound | Herbicidal effect grade, F: Digitaria ciliaris (Digitaria ciliaris; [4]) | c: corn, effect on crop grade (corn [1]) | Effect on crop grade, c: corn (corn [2]; [4]) | Effect on crop grade, g: rapeseed (rapeseed; [4]) | J: Alopecurus myosuroides, herbicidal effect grade (Alopecurus myosuroides) | Effect on crop grade, b: directly sowed rice plant (rice; [4]) | D (Leptochloa chinensis) herbicidal effect grade (Leptochloa chinensis) | d: soybean, effect on crop grade (soybean) | Herbicidal effect grade, I: Avena fatua (Avena fatua; [4]) | H: Echinochloa crus-galli var. crus-galli, herbicidal effect grade [3] | F: Digitaria ciliaris, herbicidal effect grade (Digitaria ciliaris; 320 g/ha) | c: corn, effect on crop (criteria 0-5) (corn [1]) | c: corn, effect grade on crop (corn [2]) | g: rapeseed, effect grade on crop (rapeseed) | J: Alopecurus myosuroides, herbicidal effect (criteria 0-5) (Alopecurus myosuroides) | b: directly sowed rice plant, effect grade on crop (rice) | herbicidal effect on D (Leptochloa chinensis), grade 0-5 (Leptochloa chinensis) | d: soybean, effect on crop (criteria 0-5) (soybean) | I: Avena fatua, herbicidal effect grade (Avena fatua; 320 g/ha) | H: Echinochloa crus-galli var. crus-galli, herbicidal effect (criteria 0-5) [3] | also measured
CC(CC1CC(OC(=O)N2CCOCC2)=C(c2c(C)cc(-c3ccc(Cl)cc3)cc2C)C1=O)=NOCC(F)(F)F (mixture of isomers) [9-025] | 2 (Herbicidal ratio of 20% or higher and lower than 40%) | 5 (Herbicidal ratio of 90% or more (almost completely withered)) | 0 (Herbicidal ratio of 5% or lower (almost no effect)) | 0 (Herbicidal ratio of 5% or lower (almost no effect)) | 0 (Herbicidal ratio of 5% or lower (almost no effect)) | 0 (Herbicidal ratio of 5% or lower (almost no effect)) | 5 (Herbicidal ratio of 90% or more (almost completely withered)) | 0 (Herbicidal ratio of 5% or lower (almost no effect)) | 0 (Herbicidal ratio of 5% or lower (almost no effect)) | 1 (Herbicidal ratio of 5% or higher and lower than 20%) | – | – | – | – | – | – | – | – | – | – | –
CON=C(CC1CC(OC(=O)N2CCOCC2)=C(c2c(C)cc(C)cc2OC)C1=O)C1CC1 (mixture of isomers) [13-005] | – | 4 (Herbicidal ratio of 70% or higher and lower than 90%) | – | – | 5 (Herbicidal ratio of 90% or more (almost completely withered)) | – | 5 (Herbicidal ratio of 90% or more (almost completely withered)) | 0 (Herbicidal ratio of 5% or lower (almost no effect)) | – | 5 (Herbicidal ratio of 90% or more (almost completely withered)) | – | – | – | – | – | – | – | – | – | – | F: Digitaria ciliaris, herbicidal effect grade (Digitaria ciliaris; [4]): 4 (Herbicidal ratio of 70% or higher and lower than 90%); c: corn, effect on crop grade (corn [2]; [4]): 0 (Herbicidal ratio of 5% or lower (almost no effect)); g: rapeseed, effect on crop grade (rapeseed; [4]): 0 (Herbicidal ratio of 5% or lower (almost no effect)); b: directly sowed rice plant, effect on crop grade (rice; [4]): 1 (Herbicidal ratio of 5% or higher and lower than 20%); I: Avena fatua, herbicidal effect grade (Avena fatua; [4]): 0 (Herbicidal ratio of 5% or lower (almost no effect))
CON=C(C)CC1CC(OC(=O)C#C[Si](C)(C)C)=C(c2c(C)cc(C)cc2C)C1=O (centres unmarked) [1-096] | – | – | – | – | – | – | – | – | – | – | 5 (Herbicidal ratio of 90% or more (almost completely withered)) | 5 (Herbicidal ratio of 90% or more (almost completely withered)) | 4 (Herbicidal ratio of 70% or higher and lower than 90%) | 3 (Herbicidal ratio of 40% or higher and lower than 70%) | 5 (Herbicidal ratio of 90% or more (almost completely withered)) | 5 (Herbicidal ratio of 90% or more (almost completely withered)) | 5 (Herbicidal ratio of 90% or more (almost completely withered)) | 3 (Herbicidal ratio of 40% or higher and lower than 70%) | 3 (Herbicidal ratio of 40% or higher and lower than 70%) | 5 (Herbicidal ratio of 90% or more (almost completely withered)) | –
COC(=O)c1ccc(CON=C(C)CC2CC(O)=C(c3c(C)cc(C)cc3C)C2=O)cc1 (centres unmarked) [1-118] | – | – | – | – | – | – | – | – | – | – | 3 (Herbicidal ratio of 40% or higher and lower than 70%) | 4 (Herbicidal ratio of 70% or higher and lower than 90%) | 0 (Herbicidal ratio of 5% or lower (almost no effect)) | 1 (Herbicidal ratio of 5% or higher and lower than 20%) | 4 (Herbicidal ratio of 70% or higher and lower than 90%) | 5 (Herbicidal ratio of 90% or more (almost completely withered)) | 0 (Herbicidal ratio of 5% or lower (almost no effect)) | 0 (Herbicidal ratio of 5% or lower (almost no effect)) | 0 (Herbicidal ratio of 5% or lower (almost no effect)) | 2 (Herbicidal ratio of 20% or higher and lower than 40%) | –
CC(CC1CC(O)=C(c2c(C)cc(C)cc2C)C1=O)=NOCc1ccccc1[N+](=O)[O-] (centres unmarked) [1-119] | – | – | – | – | – | – | – | – | – | – | 4 (Herbicidal ratio of 70% or higher and lower than 90%) | 2 (Herbicidal ratio of 20% or higher and lower than 40%) | 0 (Herbicidal ratio of 5% or lower (almost no effect)) | 3 (Herbicidal ratio of 40% or higher and lower than 70%) | 5 (Herbicidal ratio of 90% or more (almost completely withered)) | 5 (Herbicidal ratio of 90% or more (almost completely withered)) | 4 (Herbicidal ratio of 70% or higher and lower than 90%) | 0 (Herbicidal ratio of 5% or lower (almost no effect)) | 1 (Herbicidal ratio of 5% or higher and lower than 20%) | 5 (Herbicidal ratio of 90% or more (almost completely withered)) | –
CON=C(C)CC1CC(OC(=O)N(C)CCCCCl)=C(c2c(C)cc(C)cc2C)C1=O (centres unmarked) [1-126] | – | – | – | – | – | – | – | – | – | – | 0 (Herbicidal ratio of 5% or lower (almost no effect)) | 0 (Herbicidal ratio of 5% or lower (almost no effect)) | 0 (Herbicidal ratio of 5% or lower (almost no effect)) | 0 (Herbicidal ratio of 5% or lower (almost no effect)) | 5 (Herbicidal ratio of 90% or more (almost completely withered)) | 0 (Herbicidal ratio of 5% or lower (almost no effect)) | 5 (Herbicidal ratio of 90% or more (almost completely withered)) | 0 (Herbicidal ratio of 5% or lower (almost no effect)) | 0 (Herbicidal ratio of 5% or lower (almost no effect)) | 4 (Herbicidal ratio of 70% or higher and lower than 90%) | –
CC#Cc1cc(C)c(C2=C(O)CC(CC(=NOC)C(C)C)C2=O)c(C)c1 (centres unmarked) [9-006] | 5 (Herbicidal ratio of 90% or more (almost completely withered)) | 5 (Herbicidal ratio of 90% or more (almost completely withered)) | 5 (Herbicidal ratio of 90% or more (almost completely withered)) | 3 (Herbicidal ratio of 40% or higher and lower than 70%) | 5 (Herbicidal ratio of 90% or more (almost completely withered)) | 5 (Herbicidal ratio of 90% or more (almost completely withered)) | 5 (Herbicidal ratio of 90% or more (almost completely withered)) | 0 (Herbicidal ratio of 5% or lower (almost no effect)) | 4 (Herbicidal ratio of 70% or higher and lower than 90%) | 5 (Herbicidal ratio of 90% or more (almost completely withered)) | – | – | – | – | – | – | – | – | – | – | –
CON=C(CC1CC(O)=C(c2c(C)cc(-n3cc(Cl)cn3)cc2C)C1=O)C1CC1 (centres unmarked) [9-007] | 5 (Herbicidal ratio of 90% or more (almost completely withered)) | 5 (Herbicidal ratio of 90% or more (almost completely withered)) | 0 (Herbicidal ratio of 5% or lower (almost no effect)) | 0 (Herbicidal ratio of 5% or lower (almost no effect)) | 5 (Herbicidal ratio of 90% or more (almost completely withered)) | 5 (Herbicidal ratio of 90% or more (almost completely withered)) | 5 (Herbicidal ratio of 90% or more (almost completely withered)) | 0 (Herbicidal ratio of 5% or lower (almost no effect)) | 3 (Herbicidal ratio of 40% or higher and lower than 70%) | 5 (Herbicidal ratio of 90% or more (almost completely withered)) | – | – | – | – | – | – | – | – | – | – | –
